Experimental data: patent US6066616A, “Somatostatin analogue composition and use in treating breast cancer” (Novartis AG, priority 1987, dated 2000)

Assay: tolerated dose of octreotide
Settings: in vivo
Procedure: Thus for octreotide, GI tumours may be treated initially with 0.05 mg once or twice a day by sub-cutaneous injection. Dosage can be increased to 0.2 mg three times daily. For acromegaly daily doses of from 100 to 300 μg s.c. may be used. Octreotide is tolerated at least to 1 mg.

C[C@@H](O)[C@@H]1NC(=O)[C@H](CCCCN)NC(=O)[C@@H](Cc2c[nH]c3ccccc23)NC(=O)[C@H](Cc2ccccc2)NC(=O)[C@@H](NC(=O)[C@H](N)Cc2ccccc2)CSSC[C@@H](C(=O)N[C@H](CO)[C@@H](C)O)NC1=O [Octreotide, octreotide]
tolerated dose: ≥ 1 mg
